Measured values taken from ChEMBL document CHEMBL4507287, “Data for DCP probe MRL-650” (2021).

Key:
[1] = system: Receptor-type tyrosine-protein kinase FLT3 (Homo sapiens), P36888 [D835V]; conditions: Compound concentration 1000.0 nM
[2] = molecular target: 5-hydroxytryptamine receptor 1B (Homo sapiens) (UniProt P28222); conditions: Compound concentration 10.0 uM
[3] = molecular target: Serine/threonine-protein kinase 33 (Homo sapiens) (UniProt Q9BYT3); conditions: Compound concentration 1000.0 nM
Sequence of Serine/threonine-protein kinase 33 (Homo sapiens) (Q9BYT3 whole entry, looked up): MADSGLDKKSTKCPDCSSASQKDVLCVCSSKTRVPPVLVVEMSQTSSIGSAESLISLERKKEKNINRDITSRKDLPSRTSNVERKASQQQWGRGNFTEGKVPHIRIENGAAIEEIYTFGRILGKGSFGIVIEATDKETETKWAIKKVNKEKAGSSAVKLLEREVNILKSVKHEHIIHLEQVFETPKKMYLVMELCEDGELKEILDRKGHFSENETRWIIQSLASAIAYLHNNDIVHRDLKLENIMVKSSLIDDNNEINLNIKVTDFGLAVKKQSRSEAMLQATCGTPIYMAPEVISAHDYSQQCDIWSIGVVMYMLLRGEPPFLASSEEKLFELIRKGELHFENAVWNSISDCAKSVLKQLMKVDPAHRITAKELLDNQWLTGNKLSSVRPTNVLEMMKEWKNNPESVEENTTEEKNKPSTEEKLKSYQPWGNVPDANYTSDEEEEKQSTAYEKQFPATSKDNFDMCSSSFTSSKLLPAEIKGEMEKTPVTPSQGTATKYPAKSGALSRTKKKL

[4] = system: Epidermal growth factor receptor (Homo sapiens), P00533 [UNDEFINED MUTATION]; conditions: Compound concentration 1000.0 nM
Sequence of Epidermal growth factor receptor (Homo sapiens), P00533 [UNDEFINED MUTATION] (P00533 whole entry, looked up, change not shown, the tested form may be a part): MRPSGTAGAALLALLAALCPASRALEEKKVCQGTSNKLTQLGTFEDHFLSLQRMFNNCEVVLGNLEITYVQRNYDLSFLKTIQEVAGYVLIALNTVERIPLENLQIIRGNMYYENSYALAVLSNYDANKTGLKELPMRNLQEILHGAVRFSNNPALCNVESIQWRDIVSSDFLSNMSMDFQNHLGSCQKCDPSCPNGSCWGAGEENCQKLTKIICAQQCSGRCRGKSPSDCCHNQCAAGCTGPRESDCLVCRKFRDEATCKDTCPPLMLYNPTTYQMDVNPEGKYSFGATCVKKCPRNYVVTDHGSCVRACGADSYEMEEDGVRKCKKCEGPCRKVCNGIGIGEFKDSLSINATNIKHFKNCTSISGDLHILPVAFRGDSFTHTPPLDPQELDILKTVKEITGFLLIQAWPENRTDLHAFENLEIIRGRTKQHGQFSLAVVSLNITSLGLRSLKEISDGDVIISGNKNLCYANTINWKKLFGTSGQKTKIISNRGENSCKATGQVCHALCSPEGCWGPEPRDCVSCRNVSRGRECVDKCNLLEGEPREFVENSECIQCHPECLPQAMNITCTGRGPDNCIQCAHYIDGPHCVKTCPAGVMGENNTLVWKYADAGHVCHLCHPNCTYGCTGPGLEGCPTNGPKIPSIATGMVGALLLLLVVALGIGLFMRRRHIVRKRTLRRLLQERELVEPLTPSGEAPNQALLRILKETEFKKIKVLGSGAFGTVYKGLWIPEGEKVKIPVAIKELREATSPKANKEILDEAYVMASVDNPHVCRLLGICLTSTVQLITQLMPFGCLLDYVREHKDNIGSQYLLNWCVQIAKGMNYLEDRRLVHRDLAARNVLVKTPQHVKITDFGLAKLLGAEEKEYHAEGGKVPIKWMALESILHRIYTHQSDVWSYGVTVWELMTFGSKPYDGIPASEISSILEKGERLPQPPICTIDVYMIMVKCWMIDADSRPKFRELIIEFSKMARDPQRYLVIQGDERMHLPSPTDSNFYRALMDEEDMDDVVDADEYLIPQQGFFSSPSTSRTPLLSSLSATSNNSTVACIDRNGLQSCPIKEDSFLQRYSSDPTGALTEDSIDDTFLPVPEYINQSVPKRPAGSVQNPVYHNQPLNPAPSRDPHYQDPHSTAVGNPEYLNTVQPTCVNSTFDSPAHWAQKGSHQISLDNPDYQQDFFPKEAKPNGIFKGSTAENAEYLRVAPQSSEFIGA

[5] = molecular target: Epithelial discoidin domain-containing receptor 1 (Homo sapiens) (UniProt Q08345); conditions: Compound concentration 1000.0 nM
[6] = molecular target: Death-associated protein kinase 3 (Homo sapiens) (UniProt O43293); conditions: Compound concentration 1000.0 nM
[7] = molecular target: Aurora kinase B (Homo sapiens) (UniProt Q96GD4); conditions: Compound concentration 1000.0 nM
[8] = molecular target: Tyrosine-protein kinase TXK (Homo sapiens) (UniProt P42681); conditions: Compound concentration 1000.0 nM
[9] = system: Epidermal growth factor receptor (Homo sapiens), P00533 [UNDEFINED MUTATION]; conditions: Compound concentration 1000.0 nM; remark: listed apart in the source
[10] = molecular target: RAC-gamma serine/threonine-protein kinase (Homo sapiens) (UniProt Q9Y243); conditions: Compound concentration 1000.0 nM
Sequence of RAC-gamma serine/threonine-protein kinase (Homo sapiens) (Q9Y243 whole entry): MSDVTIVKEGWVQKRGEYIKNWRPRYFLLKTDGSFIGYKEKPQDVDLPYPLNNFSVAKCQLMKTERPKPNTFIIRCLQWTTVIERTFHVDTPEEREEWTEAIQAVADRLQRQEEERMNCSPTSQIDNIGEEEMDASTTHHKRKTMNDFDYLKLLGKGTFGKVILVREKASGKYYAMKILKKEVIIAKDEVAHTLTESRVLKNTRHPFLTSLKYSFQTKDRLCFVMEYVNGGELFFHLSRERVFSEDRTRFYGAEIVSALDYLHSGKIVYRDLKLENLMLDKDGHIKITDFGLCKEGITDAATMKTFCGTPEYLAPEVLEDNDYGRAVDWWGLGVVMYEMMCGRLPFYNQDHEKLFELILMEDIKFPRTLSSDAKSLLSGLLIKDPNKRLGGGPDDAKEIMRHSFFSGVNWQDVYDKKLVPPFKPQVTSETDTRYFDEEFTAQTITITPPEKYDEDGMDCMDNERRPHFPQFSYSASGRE

[11] = molecular target: Serine/threonine-protein kinase 32C (Homo sapiens) (UniProt Q86UX6); conditions: Compound concentration 1000.0 nM
[12] = molecular target: Cyclin-dependent kinase 3 (Homo sapiens) (UniProt Q00526); conditions: Compound concentration 1000.0 nM
[13] = molecular target: Serine/threonine-protein kinase LATS2 (Homo sapiens) (UniProt Q9NRM7); conditions: Compound concentration 1000.0 nM
[14] = molecular target: Casein kinase II subunit alpha' (Homo sapiens) (UniProt P19784); conditions: Compound concentration 1000.0 nM
[15] = molecular target: Serine/threonine-protein kinase PAK 2 (Homo sapiens) (UniProt Q13177); conditions: Compound concentration 1000.0 nM
Sequence of Serine/threonine-protein kinase PAK 2 (Homo sapiens) (Q13177 whole entry): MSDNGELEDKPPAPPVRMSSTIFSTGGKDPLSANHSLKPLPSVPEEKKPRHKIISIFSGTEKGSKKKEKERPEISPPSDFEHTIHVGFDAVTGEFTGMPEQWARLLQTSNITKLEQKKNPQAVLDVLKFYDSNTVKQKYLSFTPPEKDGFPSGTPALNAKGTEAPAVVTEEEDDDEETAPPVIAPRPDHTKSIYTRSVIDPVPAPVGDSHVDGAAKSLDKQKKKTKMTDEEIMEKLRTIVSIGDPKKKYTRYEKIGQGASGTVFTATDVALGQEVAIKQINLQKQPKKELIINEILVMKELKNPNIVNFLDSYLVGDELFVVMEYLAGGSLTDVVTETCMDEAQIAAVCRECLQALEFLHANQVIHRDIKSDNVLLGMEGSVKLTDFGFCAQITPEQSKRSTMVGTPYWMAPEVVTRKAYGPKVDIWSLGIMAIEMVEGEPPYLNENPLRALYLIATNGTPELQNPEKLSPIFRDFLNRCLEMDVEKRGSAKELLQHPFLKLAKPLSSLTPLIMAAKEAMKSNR

[16] = molecular target: Serine/threonine-protein kinase Nek7 (Homo sapiens) (UniProt Q8TDX7); conditions: Compound concentration 1000.0 nM
[17] = molecular target: Histamine H2 receptor (Homo sapiens) (UniProt P25021); conditions: Compound concentration 10.0 uM
[18] = molecular target: Dual specificity mitogen-activated protein kinase kinase 1 (Homo sapiens) (UniProt Q02750); conditions: Compound concentration 1000.0 nM
[19] = system: Phosphatidylinositol 4,5-bisphosphate 3-kinase catalytic subunit alpha isoform (Homo sapiens), P42336 [E545A]; conditions: Compound concentration 1000.0 nM
[20] = molecular target: Mu-type opioid receptor (Homo sapiens) (UniProt P35372); conditions: Compound concentration 10.0 uM
[21] = molecular target: Serine/threonine-protein kinase Chk2 (Homo sapiens) (UniProt O96017); conditions: Compound concentration 1000.0 nM
Sequence of Serine/threonine-protein kinase Chk2 (Homo sapiens) (O96017 whole entry): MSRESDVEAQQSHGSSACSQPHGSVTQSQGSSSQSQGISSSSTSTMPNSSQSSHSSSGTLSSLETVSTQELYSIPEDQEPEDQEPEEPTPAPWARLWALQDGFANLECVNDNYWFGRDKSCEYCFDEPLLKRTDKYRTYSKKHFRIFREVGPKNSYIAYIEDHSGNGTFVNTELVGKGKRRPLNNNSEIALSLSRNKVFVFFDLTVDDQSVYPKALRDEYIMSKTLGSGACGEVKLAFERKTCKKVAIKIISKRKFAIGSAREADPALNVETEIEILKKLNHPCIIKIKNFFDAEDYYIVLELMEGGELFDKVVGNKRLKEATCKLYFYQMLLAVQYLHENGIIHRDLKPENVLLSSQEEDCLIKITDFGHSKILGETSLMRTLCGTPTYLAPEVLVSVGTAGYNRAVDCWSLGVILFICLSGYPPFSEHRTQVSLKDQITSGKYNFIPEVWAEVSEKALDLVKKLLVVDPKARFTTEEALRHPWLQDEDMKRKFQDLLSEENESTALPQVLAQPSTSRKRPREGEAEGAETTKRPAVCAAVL

[22] = molecular target: Serine/threonine-protein kinase Chk1 (Homo sapiens) (UniProt O14757); conditions: Compound concentration 1000.0 nM
Sequence of Serine/threonine-protein kinase Chk1 (Homo sapiens) (O14757 whole entry): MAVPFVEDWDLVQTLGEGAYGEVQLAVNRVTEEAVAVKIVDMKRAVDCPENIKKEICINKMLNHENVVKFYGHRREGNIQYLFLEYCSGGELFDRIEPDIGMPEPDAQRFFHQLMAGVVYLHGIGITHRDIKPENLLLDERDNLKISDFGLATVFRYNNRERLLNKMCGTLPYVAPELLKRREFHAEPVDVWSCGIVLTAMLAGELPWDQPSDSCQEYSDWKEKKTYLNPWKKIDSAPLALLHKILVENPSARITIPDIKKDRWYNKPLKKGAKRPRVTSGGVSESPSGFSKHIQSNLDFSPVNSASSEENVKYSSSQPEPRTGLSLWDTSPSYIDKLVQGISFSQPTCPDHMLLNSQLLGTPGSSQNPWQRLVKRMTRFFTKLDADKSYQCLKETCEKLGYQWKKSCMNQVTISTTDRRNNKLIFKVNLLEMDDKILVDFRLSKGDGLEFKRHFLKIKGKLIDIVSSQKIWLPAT

[23] = molecular target: Serine/threonine-protein kinase Sgk1 (Homo sapiens) (UniProt O00141); conditions: Compound concentration 1000.0 nM
Sequence of Serine/threonine-protein kinase Sgk1 (Homo sapiens) (O00141 whole entry): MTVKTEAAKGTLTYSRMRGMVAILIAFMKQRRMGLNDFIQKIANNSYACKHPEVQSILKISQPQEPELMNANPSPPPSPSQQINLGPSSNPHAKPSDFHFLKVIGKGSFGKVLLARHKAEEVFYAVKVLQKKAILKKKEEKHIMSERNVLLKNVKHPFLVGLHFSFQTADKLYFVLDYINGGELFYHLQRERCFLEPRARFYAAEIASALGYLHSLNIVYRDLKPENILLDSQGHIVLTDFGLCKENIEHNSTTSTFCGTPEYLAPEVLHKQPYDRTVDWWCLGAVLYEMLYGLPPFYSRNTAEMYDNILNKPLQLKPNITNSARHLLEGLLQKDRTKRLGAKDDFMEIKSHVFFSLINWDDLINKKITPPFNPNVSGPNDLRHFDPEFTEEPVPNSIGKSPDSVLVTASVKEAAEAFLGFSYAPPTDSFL

[24] = molecular target: Serine/threonine-protein kinase PLK4 (Homo sapiens) (UniProt O00444); conditions: Compound concentration 1000.0 nM
[25] = molecular target: Beta-3 adrenergic receptor (Homo sapiens, UniProt P13945); conditions: Compound concentration 10.0 uM
Sequence of Beta-3 adrenergic receptor (P13945 whole entry, looked up): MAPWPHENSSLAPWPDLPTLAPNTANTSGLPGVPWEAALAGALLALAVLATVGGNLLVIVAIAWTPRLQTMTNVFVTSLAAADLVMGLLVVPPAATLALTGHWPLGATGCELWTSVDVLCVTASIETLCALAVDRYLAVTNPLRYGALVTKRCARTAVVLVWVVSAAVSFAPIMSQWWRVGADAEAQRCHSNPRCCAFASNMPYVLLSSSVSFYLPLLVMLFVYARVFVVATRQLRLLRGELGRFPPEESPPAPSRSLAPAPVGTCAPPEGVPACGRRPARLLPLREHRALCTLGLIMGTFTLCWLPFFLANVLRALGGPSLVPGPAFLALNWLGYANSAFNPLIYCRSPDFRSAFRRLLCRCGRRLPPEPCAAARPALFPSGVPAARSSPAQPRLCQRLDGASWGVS

[26] = molecular target: Tyrosine-protein kinase Yes (Homo sapiens) (UniProt P07947); conditions: Compound concentration 1000.0 nM
[27] = system: Phosphatidylinositol 4,5-bisphosphate 3-kinase catalytic subunit alpha isoform (Homo sapiens), P42336 [C420R]; conditions: Compound concentration 1000.0 nM
[28] = molecular target: Fibroblast growth factor receptor 1 (Homo sapiens) (UniProt P11362); conditions: Compound concentration 1000.0 nM
[29] = molecular target: Phosphorylase b kinase gamma catalytic chain, skeletal muscle/heart isoform (Homo sapiens) (UniProt Q16816); conditions: Compound concentration 1000.0 nM
[30] = molecular target: Mast/stem cell growth factor receptor Kit (Homo sapiens) (UniProt P10721); conditions: Compound concentration 1000.0 nM
[31] = system: ALK tyrosine kinase receptor (Homo sapiens), Q9UM73 [L1196M]; conditions: Compound concentration 1000.0 nM
[32] = molecular target: Hormonally up-regulated neu tumor-associated kinase (Homo sapiens) (UniProt P57058); conditions: Compound concentration 1000.0 nM
[33] = molecular target: Proto-oncogene tyrosine-protein kinase receptor Ret (Homo sapiens) (UniProt P07949); conditions: Compound concentration 1000.0 nM
[34] = molecular target: Mitogen-activated protein kinase 10 (Homo sapiens) (UniProt P53779); conditions: Compound concentration 1000.0 nM
[35] = molecular target: Myosin-IIIb (Homo sapiens) (UniProt Q8WXR4); conditions: Compound concentration 1000.0 nM
[36] = molecular target: Cytoplasmic tyrosine-protein kinase BMX (Homo sapiens) (UniProt P51813); conditions: Compound concentration 1000.0 nM
[37] = system: Tyrosine-protein kinase ABL1 (Homo sapiens), P00519 [E255K]; conditions: Compound concentration 1000.0 nM
[38] = molecular target: Transient receptor potential cation channel subfamily M member 6 (Homo sapiens) (UniProt Q9BX84); conditions: Compound concentration 1000.0 nM
[39] = molecular target: SRSF protein kinase 2 (Homo sapiens) (UniProt P78362); conditions: Compound concentration 1000.0 nM
[40] = molecular target: Myosin light chain kinase family member 4 (Homo sapiens) (UniProt Q86YV6); conditions: Compound concentration 1000.0 nM
[41] = system: Proto-oncogene tyrosine-protein kinase receptor Ret (Homo sapiens), P07949 [V804L]; conditions: Compound concentration 1000.0 nM
[42] = system: Receptor-type tyrosine-protein kinase FLT3 (Homo sapiens), P36888 [N841I]; conditions: Compound concentration 1000.0 nM
[43] = molecular target: Activin receptor type-1B (Homo sapiens) (UniProt P36896); conditions: Compound concentration 1000.0 nM
[44] = system: Leucine-rich repeat serine/threonine-protein kinase 2 (Homo sapiens), Q5S007 [G2019S]; conditions: Compound concentration 1000.0 nM
[45] = molecular target: STE20-like serine/threonine-protein kinase (Homo sapiens) (UniProt Q9H2G2); conditions: Compound concentration 1000.0 nM

Sequence of 5-hydroxytryptamine receptor 1B (Homo sapiens) (P28222 whole entry): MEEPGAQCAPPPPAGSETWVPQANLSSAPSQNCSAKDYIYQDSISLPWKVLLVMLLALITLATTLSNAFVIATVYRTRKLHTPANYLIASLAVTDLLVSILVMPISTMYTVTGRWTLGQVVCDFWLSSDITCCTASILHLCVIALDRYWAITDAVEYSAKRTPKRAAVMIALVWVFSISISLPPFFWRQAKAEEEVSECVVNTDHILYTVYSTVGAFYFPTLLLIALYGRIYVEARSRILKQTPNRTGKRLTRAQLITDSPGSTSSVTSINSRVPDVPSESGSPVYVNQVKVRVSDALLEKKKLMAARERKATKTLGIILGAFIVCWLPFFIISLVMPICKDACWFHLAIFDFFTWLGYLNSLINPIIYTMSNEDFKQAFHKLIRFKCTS

CC(=O)c1c(NS(C)(=O)=O)c2cc(-c3ccc(Cl)cc3)c(-c3ccc(Cl)cc3Cl)nc2n(C)c1=O [MRL-CB1-NC]
inactive: residual activity [1] 89% | inhibition [2] -2.36% | residual activity [3] 100% | residual activity [4] 90% | residual activity [5] 100% | residual activity [6] 100% | residual activity [7] 100% | residual activity [8] 100% | residual activity [9] 91% | residual activity [10] 91% | residual activity [11] 100% | residual activity [12] 100% | residual activity [13] 78% | residual activity [14] 100% | residual activity [15] 100% | residual activity [16] 100% | inhibition [17] 13.8% | residual activity [18] 81% | residual activity [19] 100% | inhibition [20] 34.4% | residual activity [21] 100% | residual activity [22] 100% | residual activity [23] 100% | residual activity [24] 100% | residual activity [26] 96% | residual activity [27] 93% | residual activity [28] 97% | residual activity [29] 94% | residual activity [30] 100% | residual activity [31] 97% | residual activity [32] 100% | residual activity [33] 93% | residual activity [34] 78% | residual activity [35] 99% | residual activity [36] 100% | residual activity [37] 100% | residual activity [38] 100% | residual activity [39] 100% | residual activity [40] 100% | residual activity [41] 100% | residual activity [42] 100% | residual activity [43] 92% | residual activity [44] 100% | residual activity [45] 100%
active: inhibition [25] 69.3%

CC(=O)Nc1c(C(C)=O)c(=O)n(C)c2nc(-c3ccc(Cl)cc3Cl)c(-c3ccc(Cl)cc3)cc12 [NAPHTHYRIDINONE]
inactive: residual activity [1] 82% | inhibition [2] 43.6% | residual activity [3] 100% | residual activity [4] 86% | residual activity [5] 100% | residual activity [6] 100% | residual activity [7] 92% | residual activity [8] 100% | residual activity [9] 100% | residual activity [10] 100% | residual activity [11] 100% | residual activity [12] 100% | residual activity [13] 100% | residual activity [14] 100% | residual activity [15] 100% | residual activity [16] 100% | inhibition [17] 6.71% | residual activity [18] 100% | residual activity [19] 85% | inhibition [20] 8.16% | residual activity [21] 100% | residual activity [22] 100% | residual activity [23] 100% | residual activity [24] 100% | inhibition [25] 37.6% | residual activity [26] 100% | residual activity [27] 88% | residual activity [28] 100% | residual activity [29] 100% | residual activity [30] 100% | residual activity [31] 100% | residual activity [32] 100% | residual activity [33] 100% | residual activity [34] 100% | residual activity [35] 100% | residual activity [36] 100% | residual activity [37] 94% | residual activity [38] 100% | residual activity [39] 100% | residual activity [40] 100% | residual activity [41] 100% | residual activity [42] 100% | residual activity [43] 94% | residual activity [44] 100% | residual activity [45] 100%
